The values below come from article PMC11672125 (JACS Au, 2024).

In this series the target is Brd4 (Homo sapiens, UniProt O60885). Put plainly: Brd4 degradation by immunoblotting in PC-3 cells. It is filed as cell-based. Conditions: siRNA-VHL 50 nM 72 h, then 30 nM SHD913 for 4 h.

“siVHL: siRNA against VHL; sense sequence 5′- GGCUCAACUUCGACGGCGA −3′ (antisense UCGCCGUCGAAGUUGAGCC; chemistry not given here)”: the “effect of siVHL pretreatment on SHD913-mediated Brd4 degradation” value is “reversed SHD913-mediated Brd4 degradation”.
